Data published in patent US20040161813A1, “Structure of beta-ketoacyl-[acyl carrier protein] synthases complexed with inhibitors and methods of use thereof” (St. Jude Children's Research Hospital, priority 2000, published 2004).
Entries after “also recorded” stand apart in the source; their conditions may differ. Like-named read-outs stand apart in the source and are kept apart here.

Assays:
[1] = test system: urinary tract and intraperitoneal bacterial infections; settings: mice; cited from earlier work
[2] = molecular target: T1, E. coli FabH (β-ketoacyl-ACP synthase III) (Escherichia coli, UniProt P0A6R0); test: FabH filter disc assay with [1-14C]acetyl-CoA; format: biochemical
T1 construct: made in house
T1 sequence (P0A6R0 whole entry): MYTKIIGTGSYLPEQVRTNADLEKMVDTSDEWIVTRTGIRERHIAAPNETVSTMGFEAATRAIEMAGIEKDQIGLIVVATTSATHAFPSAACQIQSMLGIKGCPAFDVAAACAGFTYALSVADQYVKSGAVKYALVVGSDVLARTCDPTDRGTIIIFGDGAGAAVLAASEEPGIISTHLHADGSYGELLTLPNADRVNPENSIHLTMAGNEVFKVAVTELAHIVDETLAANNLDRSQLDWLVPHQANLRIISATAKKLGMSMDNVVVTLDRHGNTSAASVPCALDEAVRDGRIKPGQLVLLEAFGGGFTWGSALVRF
Description: A filter disc assay was used to assay FabH activity with [1-^14C]acetyl-CoA as described previously (15,18). The assays contained 100 μM ACP, 1 mM β-mercaptoethanol, 45 μM [^14C]acetyl-CoA (specific activity, 52.0 Ci/mole), and 50 μM malonyl-CoA, E. coli FabD (0.3 μg) and 0.1 M sodium phosphate buffer (pH 7.0) in a final volume of 40 μl. The reaction was initiated by the addition of FabH and the mixture was incubated at 37° C. for 12 min. A 35-μl aliquot was removed and deposited on a Whatman 3MM filter disc. The discs were washed with three changes (20 ml/disc for 20 min) of ice-cold trichloroacetic acid. The concentration of the trichloroacetic acid was reduced from 10 to 5 to 1% in each successive wash. The filters were dried and counted in 3 ml of scintillation cocktail.

[3] = molecular target: T2, E. coli FabB (β-ketoacyl-ACP synthase I) (Escherichia coli, UniProt P0A953); test: FabB radiochemical condensing enzyme assay with myristoyl-ACP; format: biochemical
T2 construct: made in house; host or cells: pET-15b-FabB expression vector; Novagen expression strains
T2 sequence (P0A953 whole entry): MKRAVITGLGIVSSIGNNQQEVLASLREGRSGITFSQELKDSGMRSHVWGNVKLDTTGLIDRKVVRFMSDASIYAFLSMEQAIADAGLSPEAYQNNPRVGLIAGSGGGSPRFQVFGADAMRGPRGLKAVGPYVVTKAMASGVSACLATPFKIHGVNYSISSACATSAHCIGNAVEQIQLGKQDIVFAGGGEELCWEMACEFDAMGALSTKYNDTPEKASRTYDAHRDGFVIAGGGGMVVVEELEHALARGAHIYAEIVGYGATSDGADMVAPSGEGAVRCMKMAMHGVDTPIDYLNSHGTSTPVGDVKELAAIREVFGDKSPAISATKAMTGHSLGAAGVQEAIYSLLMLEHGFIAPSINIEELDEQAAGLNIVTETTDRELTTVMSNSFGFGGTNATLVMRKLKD
Description: (§1) FabB and FabF radiochemical assay was performed using the scheme devised by Garwin et al. (11) using myristoyl-ACP as the substrate. The assays contained 100 μM ACP, 0.3 mM dithiothreitol, 1 mM EDTA, 0.1 M potassium phosphate buffer, pH 6.8, 50 μM [^14C]malonyl-CoA (specific activity 55 Ci/mole), 100 μM myristoyl-ACP, FabD (0.3 μg of protein), in a final volume of 20 μl. A mixture of ACP, 0.3 mM DTT, 1 mM EDTA, and the buffer was incubated at 37° C. for 30 min to ensure complete reduction ACP, and then the remaining components (except the condensing enzyme) were added. The mixture was then aliquoted into the assay tubes and the reaction was initiated by the addition of FabB or FabF. The reaction mixture was incubated at 37° C. for 20 min, then 400 μl of reducing agent (0.1 M K2HPO4, 0.4 M KCl, 30% tetrahydrofuran, and 5 mg/ml sodium borohydride) was added into the reaction tubes and incubated for 40 min.
(§2) Finally, 400 μl of toluene was added, vigorously mixed, and 300 μl of upper phase solution was counted in 3 ml of scintillation cocktail.

[4] = molecular target: T3, E. coli FabF (β-ketoacyl-ACP synthase II) (Escherichia coli, UniProt P0AAI5); test: FabF radiochemical condensing enzyme assay with myristoyl-ACP; format: biochemical
T3 construct: made in house
T3 sequence (P0AAI5 whole entry): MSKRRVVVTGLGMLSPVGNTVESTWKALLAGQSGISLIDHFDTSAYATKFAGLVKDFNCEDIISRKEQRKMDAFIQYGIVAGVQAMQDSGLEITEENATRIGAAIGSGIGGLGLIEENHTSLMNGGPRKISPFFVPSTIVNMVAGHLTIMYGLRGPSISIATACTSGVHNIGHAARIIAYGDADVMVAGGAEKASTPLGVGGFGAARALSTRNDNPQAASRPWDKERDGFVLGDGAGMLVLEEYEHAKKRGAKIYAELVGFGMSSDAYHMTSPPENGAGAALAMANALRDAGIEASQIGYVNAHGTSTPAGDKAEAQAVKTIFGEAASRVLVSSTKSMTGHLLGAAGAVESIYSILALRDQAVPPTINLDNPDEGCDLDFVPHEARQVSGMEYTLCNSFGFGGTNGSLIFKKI
Description: as §1, §2

[5] = molecular target: B. subtilis FabF (Bacillus subtilis, UniProt O34340); test: Inhibition of B. subtilis FabF in vitro; format: biochemical
Sequence of B. subtilis FabF (O34340 whole entry): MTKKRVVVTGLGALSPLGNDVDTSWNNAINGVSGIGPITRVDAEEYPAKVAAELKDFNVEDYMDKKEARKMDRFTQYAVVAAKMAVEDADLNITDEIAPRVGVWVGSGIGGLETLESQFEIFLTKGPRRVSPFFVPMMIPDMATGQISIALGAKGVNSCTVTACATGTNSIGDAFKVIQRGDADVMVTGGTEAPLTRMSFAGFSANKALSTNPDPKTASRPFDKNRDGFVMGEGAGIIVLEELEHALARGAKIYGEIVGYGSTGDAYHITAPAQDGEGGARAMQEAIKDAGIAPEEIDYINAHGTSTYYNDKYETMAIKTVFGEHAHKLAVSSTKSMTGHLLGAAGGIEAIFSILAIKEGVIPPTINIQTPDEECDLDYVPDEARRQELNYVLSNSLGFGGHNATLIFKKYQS

[6] = molecular target: T4, FabB (Escherichia coli, UniProt P0A953); test: Time course of FabB inhibition (reversibility); format: biochemical; settings: for Reversibility of FabB inhibition: 20 μM TLM or 3 μM cerulenin, with or without 30 min preincubation
T4 construct: made in house; host or cells: pET-15b-FabB expression vector; Novagen expression strains
T4 sequence (P0A953 whole entry): as the sequence (P0A953 whole entry) above
Description: The time course for the inhibition of FabB activity under five experimental conditions was determined to address the reversibility of the antibiotics. Time course for the FabB reaction in the absence of inhibitors (▾), in the presence of 20 μM TLM (●) or 3 μM cerulenin (∘). FabB was preincubated with either 20 μM TLM (▪) or 3 μM cerulenin (□) for 30 min prior to initiation of the reaction by the addition of the other substrates. FabB activity was measured using the radiochemical assay with myristoyl-ACP as the substrate as described under “Experimental Procedures” in the Example below.
as §1, §2
This hypothesis was examined by comparing the kinetics of TLM inhibition to that of cerulenin (FIG. 2), which is known to form a covalent complex with the active site cysteine of the condensing enzymes. […] This indicates the formation of the irreversible FabB-cerulenin binary complex. The same two types of time course experiments were performed with TLM (FIG. 2A).

[7] = cited from earlier work
[8] = molecular target: T5, FabB[H333N] (Escherichia coli, UniProt P0A953, H333N); test: FabB[H333N] mutant radiochemical assay with 14:0-ACP primer; format: biochemical; settings: inhibition by cerulenin
T5 construct: made in house; host or cells: pET-15b-FabB expression vector; Novagen expression strains
T5 sequence (P0A953 1-406 H333N): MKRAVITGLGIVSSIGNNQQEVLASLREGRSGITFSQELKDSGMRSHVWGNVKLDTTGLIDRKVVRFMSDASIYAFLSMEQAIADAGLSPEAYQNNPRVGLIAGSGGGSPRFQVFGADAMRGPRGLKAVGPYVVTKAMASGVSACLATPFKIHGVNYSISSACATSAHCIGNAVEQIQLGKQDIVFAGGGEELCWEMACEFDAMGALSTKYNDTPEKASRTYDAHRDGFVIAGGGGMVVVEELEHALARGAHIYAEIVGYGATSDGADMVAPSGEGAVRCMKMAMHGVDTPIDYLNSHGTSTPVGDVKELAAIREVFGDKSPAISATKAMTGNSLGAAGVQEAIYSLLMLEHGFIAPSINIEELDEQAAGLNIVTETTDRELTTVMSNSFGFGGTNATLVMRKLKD
Description: as §1, §2
Construction of the FabB[H333N] mutant—A portion of the fabB gene was amplified using the polymerase chain reaction with two specific primers. The first primer introduced the desired mutation, and extended over a unique AgeI site (5′-[…]-3′, SEQ ID NO:3). The second primer created a BamHI site downstream of the stop codon (5′-[…]-3′, SEQ ID NO:4). […]

| Structure (SMILES) | Protection against urinary tract and intraperitoneal bacterial infections [1] | IC50 [2] [µM] | IC50 [3] [µM] | IC50 [4] [µM] | Inhibition of B. subtilis FabF in vitro [5] | Reversibility of FabB inhibition [6] | Toxicity to mice [7] | Sensitivity of FabH to inhibitor [2] | IC50 ([2]; purified E. coli enzyme, acetyl-CoA primer, read-out: IC50 FabH) [µM] | IC50 ([3]; purified E. coli enzyme, myristoyl-ACP (14:0-ACP) substrate, read-out: IC50 FabB) [µM] | IC50 [8] [µM] | IC50 ([4]; purified E. coli enzyme, myristoyl-ACP substrate, read-out: IC50 FabF) [µM] | Product formation after preincubation of inhibitor with FabB ([6]; 3 μM cerulenin preincubated 30 min, reaction initiated with substrates) |
| --- | --- | --- | --- | --- | --- | --- | --- | --- | --- | --- | --- | --- | --- |
| C=C/C(C)=C/C1(C)SC(=O)C(C)=C1O (stereo in doubt) [TLM, (4S)(2E,5E)-2,4,6-trimethyl-3-hydroxy-2,5,7-octatriene-4-thiolide] | significant protection | 110 | 25 | 6 | very weak inhibitor | reversible inhibitor; also recorded: reversibly inhibited | not toxic | – | – | – | – | – | – |
| C/C=C/C/C=C/CCC(=O)[C@H]1O[C@H]1C(N)=O [cerulenin, (2R,3S)-2,3-epoxy-4-oxo-7,10-dodecandienolyamide] | – | – | – | – | – | slow-binding, irreversible inhibitor; also recorded: irreversibly inhibited | – | essentially resistant | > 700 | 3 | 30 | 20 | no discernable product formation |
